{"source": "patent US10100285B2", "about": "“Ex vivo proliferation of epithelial cells” (PROPAGENIX INC., priority 2015, dated 2018)", "key": {"[1]": {"system": "prostate epithelial cells", "experiment": "Plating efficiency of prostate epithelial cells in KSFM", "type": "cell-based, human", "source_text": "(§1) In this example, epithelial cell plating efficiency, i.e., number of cells that efficiently attach to the cell culture surfaces, continue to divide and grow into colonies, was examined under various conditions.\n(§2) However, those few cells that did attach continued to proliferate.\nMany prostate epithelial cells attached to regular tissue culture surface in the presence of both A83-01 and Y-27632 at day 2 after plating."}, "[2]": {"system": "bronchial epithelial cells", "experiment": "Growth (population doublings) of bronchial epithelial cells", "type": "cell-based, human", "conditions": "KSFM; for total population doublings: serial culture (FIG. 15)", "experimental": "(§3) Epithelial cells (prostate epithelial cells and bronchial epithelial cells) were plated at 3,000-10,000 viable cells/cm^2 in tissue culture vessels, using culture medium as indicated in Examples 2 to 5 and FIGS. 1 to 17, and incubated at 37° C. with 5% CO2. The medium was changed every 2 or 3 days. Cells were sub-cultured using standard trypsinization method when they were about 70-90% confluent. Total cell number was determined using the Countess II Automated Cell Counter (Life Technologies, AMQAX1000) following manufacturer's instructions.\n(§4) A formula used for the calculation of population doublings (PD) is presented in Equation A: n=3.32*(log Y−log I)+X Equation A where n=the final PD number at end of a given subculture, Y=the cell yield at the time of harvesting, I=the cell number used as inoculum to begin that subculture, and X=the doubling level of the inoculum used to initiate the subculture being quantitated.\n(§5) Prostate and bronchial epithelial cells were grown in KSFM in the presence of Rho kinase inhibitor (i.e., Rho-associated protein kinase inhibitor) Y-27632.\nSimilar to the experiment above, bronchial epithelial cells were grown in KSFM in the presence of media alone, ALK5 inhibitor A83-01, Rho kinase inhibitor (i.e., Rho-associated protein kinase inhibitor) Y-27632, or both (with or without collagen)."}, "[3]": {"system": "human telomerase reverse transcriptase (hTERT) expression in prostate epithelial cells", "experiment": "hTERT expression by quantitative real-time PCR in prostate epithelial cells", "type": "cell-based", "conditions": "KSFM", "experimental": "(§6) Total RNA was prepared using TRIzol® Plus RNA Purification Kit (Life Technologies, 12183-555) and PureLink® RNA Mini Kit (Life Technologies, 12183018A), following the manufacturer's instructions. One hundred nanogram total RNA was used for the determination of human telomerase reverse transcriptase (hTERT) expression using the TaqMan® RNA-to-CT™ 1-Step Kit (Life Technologies, 4392938), following the protocol provided by the supplier. hTERT primers and Taqman probe used were as follows: forward primer, 5′-[…]-3′ (SEQ ID NO:1), reverse primer, 5′-[…]-3′ (SEQ ID NO:2) and Taqman probe, 5′-[…]-3′ (SEQ ID NO:3).\n(§7) In this example, hTERT expression in epithelial cells was assessed in the presence of an ALK5 inhibitor, a Rho kinase inhibitor (i.e., a Rho-associated protein kinase inhibitor), or both. Expression of hTERT gene was examined by quantitative real-time PCR in bronchial epithelial cells and prostate epithelial cells. The cells were treated with an ALK5 inhibitor, A83-01, or a Rho kinase inhibitor (i.e., a Rho-associated protein kinase inhibitor), Y-27632, or both inhibitors, at different passages in KSFM.\nAs shown in FIG. 6A and FIG. 6B, prostate epithelial cells at early passage (p2) expressed low level of hTERT, which quickly diminished at passage 3 and became non-detectable by passage 5."}, "[4]": {"system": "human telomerase reverse transcriptase (hTERT) expression in bronchial epithelial cells", "experiment": "hTERT expression by quantitative real-time PCR in bronchial epithelial cells", "type": "cell-based", "conditions": "KSFM", "experimental": "as §6, §7"}, "[5]": {"system": "bronchial epithelial cells", "experiment": "Plating efficiency of bronchial epithelial cells in KSFM", "type": "cell-based, human", "source_text": "as §1, §2\nMany bronchial epithelial cells attached to regular tissue culture surface in the presence of both A83-01 and Y-27632 at day 2 after plating."}, "[6]": {"system": "late passage prostate epithelial cells", "type": "cell-based", "conditions": "for increase of total cell number after 5 days: KSFM plus individual compound alone at 5 μM; for increase of total cell number after 5 days / cell proliferation when used together with A83-01: 1 μM, 0.2 μM; for cell proliferation when used together with A83-01: KSFM supplemented with A83-01 plus compound at 5 μM, 5 days", "source_text": "As described above, these include Rho kinase inhibitors (i.e., Rho-associated protein kinase inhibitors) such as Y-27632, SR 3677, GSK 429286 and Thiazovivin; PAK1 inhibitor IPA-3; and myosin II inhibitor (i.e., non-muscle myosin II (NM II) inhibitor) Blebbistatin."}, "[7]": {"system": "prostate epithelial cells", "experiment": "Growth (population doublings) of prostate epithelial cells", "type": "cell-based, human", "conditions": "KSFM; for total population doublings: serial culture (FIG. 14)", "experimental": "as §3, §4, §5\nTo examine the effects of additional in vitro and/or ex vivo growth conditions, prostate epithelial cells were grown in KSFM or PrEGM in the presence of media alone, ALK5 inhibitor A83-01, Rho kinase inhibitor (i.e., Rho-associated protein kinase inhibitor) Y-27632, or both (with or without collagen)."}, "[8]": {"system": "human foreskin keratinocytes (HFK) and human bronchial epithelial cells (HBEC)", "experiment": "Cell growth with increasing concentrations of isoproterenol", "type": "cell-based", "conditions": "added to KSFM plus 1 μM A83-01 and 5 μM Y-27632, six days", "experimental": "In a further investigation, epithelial cell growth was assessed in the presence of a beta-adrenergic agonist (i.e., a beta-adrenergic receptor agonist). Human foreskin keratinocytes (HFK) and human bronchial epithelial cells (HBEC) were cultured in KSFM plus 1 μM A83-01 and 5 μM Y-27632, supplemented with increasing concentrations of isoproterenol (a beta-adrenergic receptor agonist that increases cytosolic cAMP levels). Cell numbers were counted after six days to calculate cell growth relative to control."}, "[9]": {"conditions": "regular (uncoated) tissue culture surface"}, "[10]": {"conditions": "added together with A83-01, regular tissue culture surface"}, "[11]": {"conditions": "used alone, continuous use (FIG. 13)"}}, "note": "Entries after “also recorded” stand apart in the source; their conditions may differ. Where a name gives a salt, the structure may show the parent alone. Read-outs that look alike come from different tables or passages of the source."}
{"smiles": "Cc1cccc(-c2nn(C(=S)Nc3ccccc3)cc2-c2ccnc3ccccc23)n1", "note": "[A83-01, 3-(6-Methyl-2-pyridinyl)-N-phenyl-4-(4-quinolinyl)-1H-pyrazole-1-carbothioamide]", "values": [{"measurement": "plating efficiency", "setting": "[1]; [9]", "result": "interfered with prostate epithelial cell plating efficiency"}, {"measurement": "total population doublings", "setting": "[2]", "result": "also increased the total population doublings"}, {"measurement": "hTERT expression", "setting": "[3]; early passage (p2)", "result": "quickly induced hTERT expression"}, {"measurement": "hTERT expression", "setting": "[3]; late passage (p5)", "result": "sustained measurable hTERT expression"}, {"measurement": "hTERT expression", "setting": "[4]; early passage (p3)", "result": "robustly induced hTERT expression"}, {"measurement": "hTERT expression", "setting": "[4]; late passage (p6)", "result": "sustained measurable hTERT expression"}, {"measurement": "plating efficiency", "setting": "[5]; [9]", "result": "interfered with bronchial epithelial cell plating efficiency"}, {"measurement": "increase of total cell number after 5 days", "setting": "[6]", "result": "pronounced increase of total cell number; also recorded: significantly increased"}, {"measurement": "total population doublings", "setting": "[7]", "result": "also increased the total population doublings"}]}
{"smiles": "NC(=O)c1ccc(-c2nc(-c3ccc4c(c3)OCO4)c(-c3ccccn3)[nH]2)cc1", "note": "[SB 431542, 4-[4-(1,3-benzodioxol-5-yl)-5-(2-pyridinyl)-1H-imidazol-2-yl]benzamide]", "values": [{"measurement": "increase of total cell number after 5 days", "setting": "[6]", "result": "pronounced increase of total cell number"}, {"measurement": "cell proliferation when used together with A83-01", "setting": "[6]", "result": "little extra increase"}]}
{"smiles": "CC(C)NCC(O)c1ccc(O)c(O)c1", "note": "(stereo not shown) [isoproterenol]", "values": [{"measurement": "cell growth relative to control", "setting": "[8]", "result": "further increased epithelial cells growth"}]}
{"smiles": "CC1=C(C(=O)Nc2cc3cn[nH]c3cc2F)C(c2ccc(C(F)(F)F)cc2)CC(=O)N1", "note": "(stereo not shown) [GSK 429286, 4-[4-(Trifluoromethyl)phenyl]-N-(6-Fluoro-1H-indazol-5-yl)-2-methyl-6-oxo-1,4,5,6-tetrahydro-3-pyridinecarboxamide]", "values": [{"measurement": "increase of total cell number after 5 days", "setting": "[6]", "result": "slight increase of total cell numbers"}, {"measurement": "cell proliferation when used together with A83-01", "setting": "[6]", "result": "synergistic effect"}]}
{"smiles": "Cc1ccc2c(c1)C(=O)C1(O)CCN(c3ccccc3)C1=N2", "note": "(racemic) [Blebbistatin, (±)-1,2,3,3a-Tetrahydro-3a-hydroxy-6-methyl-1-phenyl-4H-pyrrolo[2,3-b]quinolin-4-one]", "values": [{"measurement": "increase of total cell number after 5 days", "setting": "[6]", "result": "did not increase proliferation"}, {"measurement": "cell proliferation when used together with A83-01", "setting": "[6]", "result": "synergistically increased"}]}
{"smiles": "Cc1cccc(-c2n[nH]cc2-c2ccc3ncccc3n2)n1", "note": "[RepSox, 2-(3-(6-Methylpyridine-2-yl)-1H-pyrazol-4-yl)-1,5-naphthyridine]", "values": [{"measurement": "increase of total cell number after 5 days", "setting": "[6]", "result": "pronounced increase of total cell number"}, {"measurement": "cell proliferation when used together with A83-01", "setting": "[6]", "result": "little extra increase"}]}
{"smiles": "C[C@@H](N)[C@H]1CC[C@H](C(=O)Nc2ccncc2)CC1.Cl.Cl", "note": "[Y-27632, (R)-(+)-trans-4-(1-Aminoethyl)-N-(4-Pyridyl)cyclohexanecarboxamide dihydrochloride]", "values": [{"measurement": "plating efficiency", "setting": "[1]; [10]", "result": "ameliorated the low plating efficiency"}, {"measurement": "total population doublings", "setting": "[2]", "result": "slightly increased the total population doublings"}, {"measurement": "proliferation at late passage", "setting": "[2]; [11]", "result": "did not promote the proliferation"}, {"measurement": "hTERT expression", "setting": "[3]; early passage (p2)", "result": "induced hTERT expression"}, {"measurement": "hTERT expression", "setting": "[3]; late passage (p5)", "result": "non-detectable"}, {"measurement": "hTERT expression", "setting": "[4]; early passage (p3)", "result": "slightly induced hTERT expression"}, {"measurement": "hTERT expression", "setting": "[4]; late passage (p6)", "result": "non-detectable"}, {"measurement": "plating efficiency", "setting": "[5]; [10]", "result": "ameliorated the low plating efficiency"}, {"measurement": "increase of total cell number after 5 days", "setting": "[6]; dihydrochloride", "result": "slight increase of total cell numbers; also recorded: slight increase of cell proliferation"}, {"measurement": "cell proliferation when used together with A83-01", "setting": "[6]", "result": "synergistically increased"}, {"measurement": "population doubling reached shortly before senescence", "setting": "[7]", "result": "> 20", "unit": "PD"}, {"measurement": "total population doublings", "setting": "[7]", "result": "slightly increased the total population doublings"}, {"measurement": "proliferation at late passage", "setting": "[7]; [11]", "result": "did not promote the proliferation"}]}
{"smiles": "Oc1ccc2ccccc2c1SSc1c(O)ccc2ccccc12", "note": "[IPA-3, 1,1′-Dithiodi-2-naphthol]", "values": [{"measurement": "increase of total cell number after 5 days", "setting": "[6]", "result": "did not increase proliferation"}, {"measurement": "cell proliferation when used together with A83-01", "setting": "[6]", "result": "synergistically increased"}, {"measurement": "cell death", "setting": "[6]; highest concentration tested (5 μM)", "result": "nearly total cell death"}]}
{"smiles": "CN(C)CCOc1cc(-c2cn[nH]c2)ccc1NC(=O)C1COc2ccccc2O1", "note": "(stereo not shown) [SR 3677, N-[2-[2-(Dimethylamino)ethoxy]-4-(1H-pyrazol-4-yl)phenyl-2,3-dihydro-1,4-benzodioxin-2-carboxamidedi hydrochloride]", "values": [{"measurement": "increase of total cell number after 5 days", "setting": "[6]", "result": "slight increase of total cell numbers"}, {"measurement": "cell proliferation when used together with A83-01", "setting": "[6]", "result": "synergistic effect"}]}
{"smiles": "O=C(NC1CCOCC1)c1ccc(-c2cc(-c3c[nH]nc3-c3ccccn3)ccn2)cc1", "note": "[GW 788388, 4-[4-[3-(2-Pyridinyl)-1H-pyrazol-4-yl]-2-pyridinyl]-N-(tetrahydro-2H-pyran-4-yl)-benzamide]", "values": [{"measurement": "increase of total cell number after 5 days", "setting": "[6]", "result": "pronounced increase of total cell number"}, {"measurement": "cell proliferation when used together with A83-01", "setting": "[6]", "result": "little extra increase"}]}
{"smiles": "O=C(NCc1ccccc1)c1csc(Nc2ccncn2)n1", "note": "[Thiazovivin, N-Benzyl-[2-(pyrimidin-4-yl)amino]thiazole-4-carboxamide]", "values": [{"measurement": "increase of total cell number after 5 days", "setting": "[6]", "result": "slight increase of total cell numbers"}, {"measurement": "cell proliferation when used together with A83-01", "setting": "[6]", "result": "synergistic effect"}]}
